# Columns and labels:
# RXRα [1] = molecular target: T1, RXRα (Homo sapiens, UniProt P19793, R316E); assay: mammalian one-hybrid reporter in MCF-7 cells ([…]); assay type: cell-based
# T1 construct: gene RXRA; Gal4-DBD-RXRα-LBD
# T1 sequence (P19793 223-462 R316E limits assumed): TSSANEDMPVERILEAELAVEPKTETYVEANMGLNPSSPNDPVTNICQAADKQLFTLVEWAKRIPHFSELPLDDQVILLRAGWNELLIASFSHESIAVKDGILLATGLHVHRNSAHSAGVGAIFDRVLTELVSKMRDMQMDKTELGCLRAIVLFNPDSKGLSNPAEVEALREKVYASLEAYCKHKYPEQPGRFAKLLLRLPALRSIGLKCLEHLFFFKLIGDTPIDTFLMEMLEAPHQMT
# RXRα [2] = molecular target: T1, RXRα; assay: mammalian one-hybrid reporter in MCF-7 cells, antagonism of CD3254 (N-6 at […]); assay type: cell-based
# RXRα [3] = molecular target: T2, RXRα (Homo sapiens, UniProt P19793, W305A); assay: SPR (BIAcore T200); assay type: binding
# T2 construct: gene RXRA; RXRα-LBD
# T2 sequence (P19793 223-462 W305A): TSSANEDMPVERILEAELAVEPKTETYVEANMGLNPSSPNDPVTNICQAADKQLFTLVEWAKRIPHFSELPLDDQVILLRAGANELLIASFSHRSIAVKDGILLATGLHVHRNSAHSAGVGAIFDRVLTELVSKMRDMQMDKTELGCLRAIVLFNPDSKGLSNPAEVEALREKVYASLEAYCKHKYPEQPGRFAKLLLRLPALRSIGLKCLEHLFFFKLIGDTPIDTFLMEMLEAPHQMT
# RXRα [4] = molecular target: T3, RXRα (Homo sapiens, UniProt P19793); assay: SPR (BIAcore T200); also [3H]9-cis-RA competition (IC50 […]), fluorescence binding, TR-FRET coactivator assay (IC50 […])
# T3 construct: gene RXRA; His-tagged human RXRα-LBD (223–462)
# T3 sequence (P19793 223-462): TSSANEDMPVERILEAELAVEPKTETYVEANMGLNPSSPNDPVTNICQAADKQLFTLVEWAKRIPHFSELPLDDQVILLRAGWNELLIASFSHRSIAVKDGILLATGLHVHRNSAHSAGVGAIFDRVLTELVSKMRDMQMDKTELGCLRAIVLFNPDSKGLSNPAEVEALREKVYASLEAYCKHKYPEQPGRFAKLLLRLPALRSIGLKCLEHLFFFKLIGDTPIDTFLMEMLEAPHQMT
# [5] = molecular target: the molecule itself; assay: native gel or EMSA; RXRα-LBD protein (2 mg/mL) incubated with DMSO, 10 μmol/L 9-cis-RA, 25 or 50 μmol/L N-6 for 3 h; 8% nondenaturing PAGE, Coomassie staining
molecule,measurement,setting,value
Cc1cc2c(cc1-c1cc(/C=C/C(=O)O)ccc1O)C(C)(C)CCC2(C)C [CD3254],mammalian one-hybrid reporter in MCF-7 cells (10^-7 mol/L),RXRα [1],CD3254 was able to stimulate the transactivation of the mutant
"C/C(=N/O)c1sc(-n2nc(-c3ccccc3)cc2-c2ccccc2)nc1C [N-6, (NZ)-N-[1-[2-(3,5-diphenylpyrazol-1-yl)-4-methyl-1,3-thiazol-5-yl]ethylidene]droxylamine]","mammalian one-hybrid reporter in MCF-7 cells, antagonism of CD3254 (N-6 at 10 μm)",RXRα [2],CD3254-induced transactivation of RXRα-LBD/R316E was potently inhibited by N-6
same,Kd,RXRα [3],1000 µM
same,Kd,RXRα [4],15.7 µM
"His-tagged human RXRα-LBD (223–462) (domain or fragment, UniProt P19793 223-462, looked up) TSSANEDMPVERILEAELAVEPKTETYVEANMGLNPSSPNDPVTNICQAADKQLFTLVEWAKRIPHFSELPLDDQVILLRAGWNELLIASFSHRSIAVKDGILLATGLHVHRNSAHSAGVGAIFDRVLTELVSKMRDMQMDKTELGCLRAIVLFNPDSKGLSNPAEVEALREKVYASLEAYCKHKYPEQPGRFAKLLLRLPALRSIGLKCLEHLFFFKLIGDTPIDTFLMEMLEAPHQMT",stoichiometry N,[5],2
